This is an account of results in publication PMC7344389, “Discovery of Anti-Amoebic Inhibitors from Screening the MMV Pandemic Response Box on Balamuthia mandrillaris, Naegleria fowleri, and Acanthamoeba castellanii” (Pathogens, 2020).

Assay type in all cases: cell-based
The subject of experiment [1] is A549 human lung carcinoma cells. Description: MTS cytotoxicity counter-screen of reconfirmed hits. The following applies: Homo sapiens. A general note: A counterscreen serves to expose hits that act by an unwanted route or on another target.
The test system of experiment [2] is Acanthamoeba castellanii trophozoites. Description: CellTiter-Glo 2.0 trophocidal assay, A. castellanii. Particulars: for IC50: 72 h, CTG method, duplicate twofold serial dilutions from 10 µM, mean ± SD; for Selectivity Index (A549 IC50/A. castellanii IC50): SI = (IC50 A549)/(IC50 Amoeba); for potency against A. castellanii, in words: dose-response, CTG. As to the method: This isolate was also purchased from ATCC. Trophozoites were routinely grown axenically at 27 °C in Protease Peptone-Glucose Media (PG) in non-vented 75 cm^2 tissue culture flasks (Olympus, El Cajon, CA, USA), until the cells were 80–90% confluent. For sub-culturing, cells were mechanically harvested to detach the cells from the culture flasks. The cells were collected by centrifugation at 4000 rpm at 4 °C.
The trophocidal activity of compounds was assessed using the CellTiter-Glo 2.0 luminescent viability assay (Promega, Madison, WI, USA), as previously described. Trophozoites were routinely cultured as described above and only logarithmic trophozoites were used. […] Initially all compounds were assessed in a single-point drug screen at 10 and 1 μM, as previously described. […] We used this process to reduce the number of potential false positives. Drugs were cherry-picked, dissolved in the media specific to each parasite, and assessed in twofold serial dilutions from the highest concentration of 10 μM. All assays were incubated at each of the parasites’ representative growth temperatures, described above, for 72 h. At the 72 h time point, 25 μL of CellTiter-Glo 2.0 reagent was added to all wells of the 96-well plates using the Biomek NX^P automated workstation. The plates were protected from light and contents were mixed using an orbital shaker at 300 rpm at room temperature for 2 min to induce cell lysis. After shaking, the plates were equilibrated at room temperature for 10 min to stabilize the luminescent signal. The adenosine triphosphate (ATP) luminescent signal (relative light units; RLUs) was measured at 490 nm with a SpectraMax I3X plate reader (Molecular Devices, Sunnyvale, CA, USA). Drug inhibitory concentration (IC50) curves were generated using total ATP RLUs, where controls were calculated as the average of replicates using the Levenberg–Marquardt algorithm, using DMSO as the normalization control, as defined in Collaborative Drug Discovery Inc. (CDD) Vault (Burlingame, CA, USA). Values reported are from a minimum of two biological replicates with standard deviations.
On the technique in general: ATP-based viability assays read luminescence as a measure of living cells.

Experiment [3] has as its system Naegleria fowleri trophozoites. Description: CellTiter-Glo 2.0 trophocidal assay, N. fowleri. The following applies: for IC50: 72 h, CTG method, duplicate twofold serial dilutions from 10 µM, mean ± SD, read-out: N. fowleri Mean IC50 (µM) ± SD; for Selectivity Index (A549 IC50/N. fowleri IC50): SI = (IC50 A549)/(IC50 Amoeba); for potency against N. fowleri, in words: dose-response, CTG. As to the method: Pathogenic Naegleria fowleri (ATCC 30215), a clinical isolate obtained from a child in Adelaide, Australia, that died of PAM in 1969 was previously purchased from the American Type Culture Collection (ATCC). Trophozoites were routinely grown axenically at 34 °C in Nelson’s complete medium (NCM) in non-vented 75 cm^2 tissue culture flasks (Olympus, El Cajon, CA, USA), until the cells were 80–90% confluent. For sub-culturing, cells were placed on ice to detach the cells from the culture flasks. The cells were collected by centrifugation at 4000 rpm at 4 °C. Complete NCM media is produced by the addition of 10% FBS and 125 μg of penicillin/streptomycin antibiotics.
The trophocidal activity of compounds was assessed using the CellTiter-Glo 2.0 luminescent viability assay (Promega, Madison, WI, USA), as previously described. Trophozoites were routinely cultured as described above and only logarithmic trophozoites were used. In brief, B. mandrillaris, N. fowleri, or A. castellanii trophozoites cultured in their corresponding media were seeded at 16,000, 3000, or 1440 cells/well into white 96-well plates (Costar 3370), respectively. Initially all compounds were assessed in a single-point drug screen at 10 and 1 μM, as previously described. […] Control wells were supplemented with 0.1% (10 μM screening plate) or 0.01% (1 μM screening plate) DMSO, as the negative controls, or 12.5 μM of chlorhexidine, as the positive control. Following the single-point assays at 10 and 1 µM, we prioritized compounds for progression to IC50 determinations. […] We used this process to reduce the number of potential false positives. Drugs were cherry-picked, dissolved in the media specific to each parasite, and assessed in twofold serial dilutions from the highest concentration of 10 μM. All assays were incubated at each of the parasites’ representative growth temperatures, described above, for 72 h. At the 72 h time point, 25 μL of CellTiter-Glo 2.0 reagent was added to all wells of the 96-well plates using the Biomek NX^P automated workstation. The plates were protected from light and contents were mixed using an orbital shaker at 300 rpm at room temperature for 2 min to induce cell lysis. After shaking, the plates were equilibrated at room temperature for 10 min to stabilize the luminescent signal. The adenosine triphosphate (ATP) luminescent signal (relative light units; RLUs) was measured at 490 nm with a SpectraMax I3X plate reader (Molecular Devices, Sunnyvale, CA, USA). Drug inhibitory concentration (IC50) curves were generated using total ATP RLUs, where controls were calculated as the average of replicates using the Levenberg–Marquardt algorithm, using DMSO as the normalization control, as defined in Collaborative Drug Discovery Inc. (CDD) Vault (Burlingame, CA, USA). Values reported are from a minimum of two biological replicates with standard deviations.

[4] abbreviates: A549, MTS assay, 72 h, doubling dilutions from 10 µM, read-out: A549 Mean IC50.

Read-outs that look alike come from different tables or passages of the source. A value given as a limit tells only on which side of the number the result lay.

On to `C[C@@H](c1nc(-c2ccc(C#N)cc2)cs1)[C@](O)(Cn1cncn1)c1ccc(F)cc1F` [Ravuconazole], for which the IC50 was over 10 µM in experiment [1] (setting [4]), 0.02 ± 0.01 µM in experiment [2] (Acanthamoeba castellanii) and 0.05 ± 0.02 µM in experiment [3] (Naegleria fowleri). Besides, the figures for the “Selectivity Index (A549 IC50/A. castellanii IC50)” value in experiment [2] and in experiment [2] (listed as ravuconazole) were at least 625 and at least 10, respectively. Moreover, in experiment [2], the “potency against A. castellanii, in words” value is “nanomolar potency”. Besides, the “Selectivity Index (A549 IC50/N. fowleri IC50)” value in experiment [3] (listed as ravuconazole) was at least 10. Moreover, in experiment [3], the “potency against N. fowleri, in words” value is recorded as “nanomolar potency”.
On to `Cc1[nH]c2ccccc2c1CCNCc1ccc(/C=C/C(=O)NO)cc1` [Panobinostat], for which the results for the IC50 in experiment [1] (setting [4]), in experiment [2] (Acanthamoeba castellanii) and in experiment [3] (Naegleria fowleri) were under 0.31 µM, over 10 µM and 0.22 ± 0.06 µM, respectively. In experiment [3], the “Selectivity Index (A549 IC50/N. fowleri IC50)” value is on record as under 1.44. In addition, the “potency against N. fowleri, in words” value in experiment [3] is on record as “nanomolar potency”.
As to `CN(Cc1ccc(C(C)(C)C)cc1)Cc1cccc2ccccc12` [Butenafine], the IC50 in experiment [1] (setting [4]) was over 10 µM; in experiment [2], 1.97 ± 1.76 µM; in experiment [2] (listed as butenafine), at most 10 µM; in experiment [3] (listed as butenafine), at most 10 µM; in experiment [3], 1.05 ± 0.35 µM. In addition, the “Selectivity Index (A549 IC50/A. castellanii IC50)” value in experiment [2] is on record as at least 5.08. Also, the “Selectivity Index (A549 IC50/N. fowleri IC50)” value in experiment [3] is on record as at least 9.52.
As to `CC(=O)Oc1ccccc1C(=O)Nc1ncc([N+](=O)[O-])s1` [Nitazoxanide], the figures for the IC50 in experiment [1] (setting [4]), in experiment [2] (Acanthamoeba castellanii) and in experiment [3] (Naegleria fowleri) were over 10 µM, over 10 µM and 3.6 µM, respectively. Besides, the “Selectivity Index (A549 IC50/N. fowleri IC50)” value in experiment [3] is recorded as at least 2.78.
With `CN(C/C=C/C#CC(C)(C)C)Cc1cccc2ccccc12` [Terbinafine], the IC50 in experiment [1] (A549, 72 h, read-out: A549 Mean IC50 (µM)) is over 10 µM; in experiment [2] (Acanthamoeba castellanii) it was 0.56 ± 0.28 µM; in experiment [3] (Naegleria fowleri) it was 0.79 ± 0.7 µM. Moreover, the “Selectivity Index (A549 IC50/A. castellanii IC50)” value in experiment [2] was at least 18; in experiment [2] (listed as terbinafine) it was at least 10. In addition, the “potency against A. castellanii, in words” value in experiment [2] is listed as “nanomolar potency”. The “Selectivity Index (A549 IC50/N. fowleri IC50)” value in experiment [3] was at least 12.7; in experiment [3] (listed as terbinafine) it was at least 10. Also, the “potency against N. fowleri, in words” value in experiment [3] was “nanomolar potency”.

As usually defined, the IC50 is the concentration needed to halve the response being measured.
